In article PMC12163485 (Drug Metabolism and Disposition, 2025):
Values joined by “and” are separate entries in the source; they are usually repeats but may differ in a detail not shown here. Equal entries are not always repeated. Where two headings read alike, the source gives them in different places.

How the values were obtained:
OCT1 [1] = conditions: ref Tzvetkov et al, 2018 (fenoterol); Matthaei et al, 2016 (sumatriptan); cited from earlier work
[2] = cited from earlier work; for cmax = Imax: dose and route as in Supplemental Table 4, ref Hardman, 2018, fenoterol Tzvetkov et al; for cmax = Imax / fraction unbound: ipratropium Zhang et al, 2023; for fraction unbound: fraction unbound in plasma, ref Hardman, 2018, Lombardo et al (2018), fenoterol Tzvetkov et al; for tmax: p.o., ref Hardman, 2018
human OCT1 (hOCT1) [3] = molecular target: T1, human OCT1 (hOCT1) (Homo sapiens, UniProt O15245); assay: Inhibition of OCT1-mediated uptake of the cocktail substrates in HEK293 cells overexpressing human OCT1; conditions: human OCT1, mean ± SD
T1 sequence (O15245 1-554): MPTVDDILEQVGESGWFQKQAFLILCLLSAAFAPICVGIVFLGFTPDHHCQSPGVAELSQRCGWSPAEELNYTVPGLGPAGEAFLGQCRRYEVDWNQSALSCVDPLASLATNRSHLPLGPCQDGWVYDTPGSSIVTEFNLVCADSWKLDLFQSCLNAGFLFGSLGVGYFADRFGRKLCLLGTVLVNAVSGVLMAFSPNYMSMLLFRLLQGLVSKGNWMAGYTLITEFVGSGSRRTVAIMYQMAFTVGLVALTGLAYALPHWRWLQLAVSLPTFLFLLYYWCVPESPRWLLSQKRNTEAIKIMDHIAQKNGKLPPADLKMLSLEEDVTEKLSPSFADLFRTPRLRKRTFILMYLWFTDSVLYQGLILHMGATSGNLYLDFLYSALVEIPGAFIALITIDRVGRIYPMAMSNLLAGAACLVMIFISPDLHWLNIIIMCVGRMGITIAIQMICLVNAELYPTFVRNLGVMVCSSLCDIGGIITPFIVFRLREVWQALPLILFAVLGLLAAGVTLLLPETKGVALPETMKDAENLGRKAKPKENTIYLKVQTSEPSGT
Experimental: (§2) The kinetic transport parameters KM and vmax as well as the half-maximal inhibitory concentration (IC50) were calculated using GraphPad Prism version 8.0.2 (GraphPad Software, Inc). KM and vmax were calculated using nonlinear regression to the Michaelis-Menten equation.

OCT1 [4] = molecular target: T2, OCT1 (Homo sapiens, UniProt O15245); assay: DDI risk R calculated from IC50 at human OCT1; conditions: R=1+fup×Iin,max/IC50, cutoff R ≥ 1.1
T2 sequence (O15245 1-554): T1 sequence (O15245 1-554)
Experimental: (§3) Ka was calculated manually based on available pharmacokinetic parameters. Qh was set to 97 L/h and Fa was assumed as 1.

OCT1 [5] = molecular target: T2, OCT1
Experimental: as §3

human OCT1 (hOCT1) [6] = molecular target: T1, human OCT1 (hOCT1)
Experimental: as §2

OCT1 [7] = molecular target: T2, OCT1; assay: Uptake of the cocktail by HEK293 cells overexpressing human OCT1; conditions: cocktail
Experimental: (§1) Significance was calculated using Mann–Whitney U test. n = 5–8 independent experiments.

mouse OCT1 = molecular target: T3, mouse OCT1 (Mus musculus, UniProt O08966); assay: Uptake of the cocktail by HEK293 cells overexpressing mouse Oct1
T3 sequence (O08966 1-556): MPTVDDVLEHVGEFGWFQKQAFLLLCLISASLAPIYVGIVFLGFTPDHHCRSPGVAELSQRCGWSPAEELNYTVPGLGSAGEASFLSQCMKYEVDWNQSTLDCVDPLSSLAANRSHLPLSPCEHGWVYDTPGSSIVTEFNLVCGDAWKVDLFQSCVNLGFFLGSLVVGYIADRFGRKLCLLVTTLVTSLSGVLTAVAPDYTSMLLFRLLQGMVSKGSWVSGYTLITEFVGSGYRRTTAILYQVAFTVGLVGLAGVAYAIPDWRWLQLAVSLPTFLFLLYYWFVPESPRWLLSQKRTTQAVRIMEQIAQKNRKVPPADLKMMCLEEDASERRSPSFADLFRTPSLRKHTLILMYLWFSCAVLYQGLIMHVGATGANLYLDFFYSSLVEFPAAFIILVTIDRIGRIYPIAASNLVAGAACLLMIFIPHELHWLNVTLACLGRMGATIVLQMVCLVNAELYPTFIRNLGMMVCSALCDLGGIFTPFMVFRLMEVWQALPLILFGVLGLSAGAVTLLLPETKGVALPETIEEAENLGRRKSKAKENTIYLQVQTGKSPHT
Experimental: as §1

human MATE2K (hMATE2K) = human MATE2K (hMATE2K) (Homo sapiens, UniProt Q86VL8); assay: Uptake of the extended cocktail by HEK293 cells overexpressing hMATE2K; type: in vitro ADME; conditions: Fig. 6, uptake 1 minute after NH4Cl preincubation
human MATE2K (hMATE2K), sequence (Q86VL8 1-566 isoform Q86VL8-3): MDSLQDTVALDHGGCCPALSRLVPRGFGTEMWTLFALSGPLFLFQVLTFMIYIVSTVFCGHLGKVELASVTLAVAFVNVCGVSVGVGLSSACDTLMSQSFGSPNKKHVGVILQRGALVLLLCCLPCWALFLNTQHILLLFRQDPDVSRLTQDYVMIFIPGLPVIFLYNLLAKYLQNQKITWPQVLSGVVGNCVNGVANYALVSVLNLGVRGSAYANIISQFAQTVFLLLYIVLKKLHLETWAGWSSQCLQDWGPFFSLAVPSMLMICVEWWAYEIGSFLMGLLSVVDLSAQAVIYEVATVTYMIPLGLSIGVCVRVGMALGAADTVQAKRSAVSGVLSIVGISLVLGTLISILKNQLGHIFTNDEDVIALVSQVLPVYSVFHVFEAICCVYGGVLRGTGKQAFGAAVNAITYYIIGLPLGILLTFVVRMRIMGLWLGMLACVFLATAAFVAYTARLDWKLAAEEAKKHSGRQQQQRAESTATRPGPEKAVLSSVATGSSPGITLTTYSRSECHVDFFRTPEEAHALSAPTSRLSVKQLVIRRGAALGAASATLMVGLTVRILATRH

mOct1 = tested on: mOct1; parameters: method as in ref column References of Table 2 (Morse et al, 2020; Jensen et al, 2020; Meyer et al, 2022); conditions: literature values; References of Table 2 (Morse et al, 2020; Jensen et al, 2020; Meyer et al, 2022); cited from earlier work
human OCT1 (hOCT1) [8] = molecular target: T1, human OCT1 (hOCT1); parameters: expressed in transfected cells; empty vector control pcDNA5; method as in ref column References of Table 2 (Tzvetkov et al, 2018; Morse et al, 2020; Jensen et al, 2020; Meyer et al, 2019, 2022; Wittern et al, 2024 and own unpublished data; Elsby et al, 2017); conditions: literature values; References of Table 2 (Tzvetkov et al, 2018; Morse et al, 2020; Jensen et al, 2020; Meyer et al, 2019, 2022; Wittern et al, 2024 and own unpublished data; Elsby et al, 2017); cited from earlier work
human MATE1 (hMATE1) = molecular target: T4, human MATE1 (hMATE1) (Homo sapiens, UniProt Q96FL8); assay: Uptake of the extended cocktail by HEK293 cells overexpressing hMATE1; type: in vitro ADME; conditions: Fig. 6, uptake 1 minute after NH4Cl preincubation
T4 sequence (Q96FL8 1-570): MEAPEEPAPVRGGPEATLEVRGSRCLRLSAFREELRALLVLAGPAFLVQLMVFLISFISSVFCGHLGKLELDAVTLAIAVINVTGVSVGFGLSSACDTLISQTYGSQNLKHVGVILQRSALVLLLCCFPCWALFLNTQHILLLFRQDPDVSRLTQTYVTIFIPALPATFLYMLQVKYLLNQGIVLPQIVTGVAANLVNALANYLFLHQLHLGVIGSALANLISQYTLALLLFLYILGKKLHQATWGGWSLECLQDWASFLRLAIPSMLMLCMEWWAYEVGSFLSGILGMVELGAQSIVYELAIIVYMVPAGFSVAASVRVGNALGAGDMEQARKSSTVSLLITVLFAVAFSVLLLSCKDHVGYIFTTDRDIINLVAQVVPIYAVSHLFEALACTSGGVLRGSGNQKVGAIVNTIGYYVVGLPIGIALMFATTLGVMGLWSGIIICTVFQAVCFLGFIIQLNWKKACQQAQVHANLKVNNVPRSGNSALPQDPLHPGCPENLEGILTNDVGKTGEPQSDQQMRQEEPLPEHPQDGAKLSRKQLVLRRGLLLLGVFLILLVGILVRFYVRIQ

[9] = Pharmacokinetic parameters used for estimating the potential for DDIs; type: in vivo, human; conditions: human; for k el: po
Experimental: Ka was calculated manually based on available pharmacokinetic parameters.

human OCT1 (hOCT1) [10] = molecular target: T1, human OCT1 (hOCT1); assay: Transport kinetics (KM, vmax) of OCT1-mediated uptake, HEK293 cells overexpressing human OCT1; type: in vitro ADME; parameters: expressed in transfected cells; empty vector control pcDNA5; conditions: mean ± SD; for vmax: hOCT1; for Km at 2 min: human, HEK293 cells stably overexpressing human OCT1, pH 7.4, hOCT1
Experimental: To validate the cocktail, we analyzed whether the combination of all substrates in a cocktail affected their individual transport kinetics in terms of KM and vmax. […] To measure the transport kinetics for a single substrate in the cocktail, we increased the concentration of 1 substrate while keeping the concentrations of the other substrates in the cocktail constant. The resulting KM and vmax values were compared with those obtained when each substrate was tested alone (Fig. 2; Supplemental Table 5).

[11] = fold change to the negative control, n = 12

Row | Structure (SMILES) | cmax = Imax [2] [ng/mL] | fraction unbound [2] | tmax [2] [h] | DDI risk R, victim drug fenoterol (OCT1 [4]) | DDI risk R, victim drug ipratropium (OCT1 [4]) | DDI risk R, victim drug methylnaltrexone (OCT1 [4]) | DDI risk R, victim drug salbutamol (OCT1 [4]) | DDI risk R, victim drug zolmitriptan (OCT1 [4]) | DDI risk R, victim drug trospium (OCT1 [5]) | transport by MATE2K (human MATE2K (hMATE2K)) | Km (mOct1) [µM] | Km (human OCT1 (hOCT1) [8]) [µM] | transport by MATE1 (human MATE1 (hMATE1)) | I max, portal, u ([9]; in vivo) [µM] | Imax, portal ([9]; in vivo) [ng/mL] | further results
1 | CNS(=O)(=O)Cc1ccc2[nH]cc(CCN(C)C)c2c1 [Sumatriptan, sumatriptan] | 54 | 0.79 | 1.50 | 1.00 | 1.01 | 1.00 | 1.00 | 1.00 | 1.01 | by far the strongest transport activity | 65.7 | 55.8 | by far the strongest transport activity | 1.91 | 714.8 | increase in systemic exposure in individuals homozygous for OCT1 loss-of-function genetic variants (OCT1 [1]): 2 fold; t1/2 ([2]; ref Hardman, 2018, fenoterol Tzvetkov et al): 1.00 h; IC50 (human OCT1 (hOCT1) [3]; IC50 for inhibition of fenoterol uptake, substrate (victim) fenoterol 0.5 μM in cocktail): 482 ± 42.9 µM; IC50 (human OCT1 (hOCT1) [3]; IC50 for inhibition of ipratropium uptake, substrate (victim) ipratropium 0.5 μM in cocktail): 207 µM; IC50 (human OCT1 (hOCT1) [3]; IC50 for inhibition of methylnaltrexone uptake, substrate (victim) methylnaltrexone 1 μM in cocktail): 448 ± 40.9 µM; IC50 (human OCT1 (hOCT1) [3]; IC50 for inhibition of trospium uptake, substrate (victim) trospium 0.1 μM in cocktail): 270 ± 42.6 µM; IC50 (human OCT1 (hOCT1) [3]; IC50 for inhibition of zolmitriptan uptake, substrate (victim) zolmitriptan 0.5 μM in cocktail): 506 ± 36.2 µM; DDI risk R, victim drug metformin (OCT1 [4]): 1.00; IC50 (human OCT1 (hOCT1) [6]): 604 µM and 628 µM; human OCT1 uptake [fold change to pcDNA5] (OCT1 [7]; [11]): 15.3 fold change to pcDNA5; uptake stronger in human than in mouse OCT1 (OCT1 [7]; ratio human/mouse): 2 fold; mouse Oct1 uptake [fold change to pcDNA5] (mouse OCT1; [11]): 7.8 fold change to pcDNA5; ka ([9]; in vivo): 0.64 h⁻¹; k el ([9]; plasma, read-out: ke (converted)): 0.000192 s⁻¹
2 | CN(C)C(=N)N=C(N)N [Metformin, metformin] | 1600 | 1 | 1.90 | 1.00 | 1.01 | 1.01 | 1.00 | 1.00 | 1.00 | by far the strongest transport activity | 491 | 3030 | by far the strongest transport activity | 39.48 | 5100 | vmax (human OCT1 (hOCT1) [10]; substrate tested alone): 6999 ± 2065 pmol x min^-1 x mg protein^-1; vmax (human OCT1 (hOCT1) [10]; substrate tested in cocktail): 5251 ± 1311 pmol x min^-1 x mg protein^-1; Km at 2 min (human OCT1 (hOCT1) [10]; substrate tested alone): 1380 ± 512 µM; Km at 2 min (human OCT1 (hOCT1) [10]; substrate tested in cocktail): 2000 ± 338 µM; DDI risk R, victim drug sumatriptan (OCT1 [4]): 1.01; uptake stronger in mouse than in human OCT1 (mouse OCT1; ratio mouse/human): 5.1 fold; k el ([9]; in vivo): 0.000111 s⁻¹
